# Source: patent US10633419B2, “Immunomodulators” (BRISTOL-MYERS SQUIBB COMPANY, priority 2014, dated 2020)
# Positions of bridges follow the written chain, without caps; N, C: chain ends. Non-standard residues stand in square brackets, D forms with d. Residues, ends and D or L forms follow the SMILES beside them. *: point of attachment. εLys(α-Octadecanedioyl) = O=C(O)CCCCCCCCCCCCCCCCC(=O)N[C@@H](CCCCN*)C(=O)O; Dap(Nα-HOOC(CH2)16CO)OH = O=C(O)CCCCCCCCCCCCCCCCC(=O)N[C@@H](CN*)C(=O)O; Trp(1-CH2COOH) = N[C@@H](Cc1cn(CC(=O)O)c2ccccc12)C(=O)O; d(cisHyp) = O=C(O)[C@H]1C[C@@H](O)CN1; PEG6 = NCCOCCOCCOCCOCCOCCOCCC(=O)O; Palmitoyl = CCCCCCCCCCCCCCCC(=O)*; Hyp = O=C(O)[C@@H]1C[C@@H](O)CN1; NMeNle = CCCC[C@H](NC)C(=O)O; NMeA = CN[C@@H](C)C(=O)O; Pra = C#CC[C@H](N)C(=O)O; Aun = NCCCCCCCCCCC(=O)O; Dab = NCC[C@H](N)C(=O)O; Dap = NC[C@H](N)C(=O)O
# Target: T1, PD-L1 (Homo sapiens, UniProt Q9NZQ7)
# T1 construct: hPDL1(19-239)-TVMV-His; made in house; host or cells: HEK293T
# Assay: PD-1/PD-L1 Homogenous Time-Resolved Fluorescence (HTRF) binding assay (PD-1-Ig/PD-L1-His)
# Conditions: inhibition of PD-1-Ig binding to PD-L1-TVMV-His; value given as number; read-out: HTRF IC50
# Summary of the method: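 Inhibitors pre-incubated 15 min with PD-L1-His (10 nM final), then PD-1-Ig (20 nM final) added for 15 min in dPBS/0.1% BSA/0.05% Tween-20. Eu-cryptate anti-Ig (1 nM) and APC anti-His (20 nM) added, 30 min equilibration, 665/620 nm HTRF ratio read.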
# T1 sequence (Q9NZQ7 with tags, fused parts or gaps): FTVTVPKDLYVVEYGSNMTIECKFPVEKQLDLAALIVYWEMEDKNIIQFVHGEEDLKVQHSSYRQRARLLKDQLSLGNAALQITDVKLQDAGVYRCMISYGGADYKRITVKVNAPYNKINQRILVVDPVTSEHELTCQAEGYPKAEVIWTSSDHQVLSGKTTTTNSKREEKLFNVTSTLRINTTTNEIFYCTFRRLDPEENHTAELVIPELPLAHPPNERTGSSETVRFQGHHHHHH
row,IC50 [nM],SMILES
1,18.8,CCCC[C@H]1C(=O)N(C)[C@@H](CCCC)C(=O)N[C@@H](CC(C)C)C(=O)N[C@H](C(=O)NCC(=O)NCC(=O)NCC(=O)NCCCCCCCCCCC(=O)O)CSCC(=O)N[C@@H](Cc2ccc(O)cc2)C(=O)N(C)[C@@H](C)C(=O)N[C@@H](CC(N)=O)C(=O)N2CCC[C@H]2C(=O)N[C@@H](CN)C(=O)N[C@@H](CCC(N)=O)C(=O)N2C[C@H](O)C[C@H]2C(=O)N[C@@H](Cc2c[nH]c3ccccc23)C(=O)N[C@@H](CCN)C(=O)N[C@@H](Cc2cn(CC(=O)O)c3ccccc23)C(=O)N1C [Example 11094] ({CH2CO}-Y[NMeA]NP[Dap]Q[Hyp]W[Dab][Trp(1-CH2COOH)][NMeNle][NMeNle]LCGGG[Aun]-OH; thioether N-14)

# Same assay, conditions: inhibition of PD-1-Ig binding to PD-L1-TVMV-His; value given as range class; read-out: HTRF IC50
row,SMILES,IC50 [nM]
1,CCCC[C@H]1C(=O)N(C)[C@@H](CCCC)C(=O)N[C@@H](CC(C)C)C(=O)N[C@H](C(=O)NCC(=O)N[C@@H](CCC(=O)NCCCC[C@H](NC(=O)CCCCCCCCCCCCCCCCC(=O)O)C(=O)O)C(=O)O)CSCC(=O)N[C@@H](Cc2ccc(O)cc2)C(=O)N(C)[C@@H](C)C(=O)N[C@@H](CC(N)=O)C(=O)N2CCC[C@H]2C(=O)N[C@@H](CN)C(=O)N[C@@H](CC(C)C)C(=O)N2C[C@H](O)C[C@H]2C(=O)N[C@@H](Cc2c[nH]c3ccccc23)C(=O)N[C@@H](CCN)C(=O)N[C@@H](Cc2cn(CC(=O)O)c3ccccc23)C(=O)N1C [Example 11177] ({CH2CO}-Y[NMeA]NP[Dap]L[Hyp]W[Dab][Trp(1-CH2COOH)][NMeNle][NMeNle]LCGE(εLys(α-Octadecanedioyl))-OH; thioether N-14),100 to 1600
2,CCCC[C@H]1C(=O)N(C)[C@@H](CCCC)C(=O)N[C@@H](CC(C)C)C(=O)N[C@H](C(=O)NCC(=O)N[C@@H](CC(=O)NC[C@H](NC(=O)CCCCCCCCCCCCCCCCC(=O)O)C(=O)O)C(=O)O)CSCC(=O)N[C@@H](Cc2ccc(O)cc2)C(=O)N(C)[C@@H](C)C(=O)N[C@@H](CC(N)=O)C(=O)N2CCC[C@H]2C(=O)N[C@@H](CN)C(=O)N[C@@H](CC(C)C)C(=O)N2C[C@H](O)C[C@H]2C(=O)N[C@@H](Cc2c[nH]c3ccccc23)C(=O)N[C@@H](CCN)C(=O)N[C@@H](Cc2cn(CC(=O)O)c3ccccc23)C(=O)N1C [Example 11172] ({CH2CO}-Y[NMeA]NP[Dap]L[Hyp]W[Dab][Trp(1-CH2COOH)][NMeNle][NMeNle]LCGD(Dap(Nα-HOOC(CH2)16CO)OH)-OH; thioether N-14),10 to 99
3,CCCCCCCCCCCCCCCC(=O)NCCCC[C@H](NC(=O)[C@H](CC(=O)O)NC(=O)CNC(=O)[C@@H]1CSCC(=O)N[C@@H](Cc2ccc(O)cc2)C(=O)N(C)[C@@H](C)C(=O)N[C@@H](CC(N)=O)C(=O)N2CCC[C@H]2C(=O)N[C@@H](CCN)C(=O)N[C@@H](CC(C)C)C(=O)N2C[C@H](O)C[C@H]2C(=O)N[C@@H](Cc2c[nH]c3ccccc23)C(=O)N[C@@H](CO)C(=O)N[C@@H](Cc2c[nH]c3ccccc23)C(=O)N(C)[C@@H](CCCC)C(=O)N(C)[C@@H](CCCC)C(=O)N[C@@H](CCCNC(=N)N)C(=O)N1)C(N)=O [Example 11027] ({CH2CO}-Y[NMeA]NP[Dab]L[Hyp]WSW[NMeNle][NMeNle]RCGDK(Palmitoyl)-NH2; thioether N-14),100 to 1600

# Results, then the compound that gave them:
row,IC50 [nM],SMILES
1,10 to 99,CCCC[C@H]1C(=O)N(C)[C@@H](CCCC)C(=O)N[C@@H](CC(C)C)C(=O)N[C@H](C(=O)NCCOCCOCCOCCOCCOCCOCCC(=O)O)CSCC(=O)N[C@@H](Cc2ccc(O)cc2)C(=O)N(C)[C@@H](C)C(=O)N[C@@H](CC(N)=O)C(=O)N2CCC[C@H]2C(=O)N[C@@H](Cc2cnc[nH]2)C(=O)N[C@@H](CCC(=O)O)C(=O)N2C[C@H](O)C[C@@H]2C(=O)N[C@@H](Cc2c[nH]c3ccccc23)C(=O)N[C@@H](CCN)C(=O)N[C@@H](Cc2cn(CC(=O)O)c3ccccc23)C(=O)N1C [Example 11044] ({CH2CO}-Y[NMeA]NPHE[d(cisHyp)]W[Dab][Trp(1-CH2COOH)][NMeNle][NMeNle]LC[PEG6]-OH; thioether N-14)
2,10 to 99,C#CC[C@H](NC(=O)CNC(=O)CNC(=O)CNC(=O)[C@@H]1CSCC(=O)N[C@@H](Cc2ccc(O)cc2)C(=O)N(C)[C@@H](C)C(=O)N[C@@H](CC(N)=O)C(=O)N2CCC[C@H]2C(=O)N[C@@H](CN)C(=O)N[C@@H](CC(C)C)C(=O)N2C[C@H](O)C[C@H]2C(=O)N[C@@H](Cc2c[nH]c3ccccc23)C(=O)N[C@@H](CCN)C(=O)N[C@@H](Cc2cn(CC(=O)O)c3ccccc23)C(=O)N(C)[C@@H](CCCC)C(=O)N(C)[C@@H](CCCC)C(=O)N[C@@H](CC(C)C)C(=O)N1)C(=O)O [INT130AB] ({CH2CO}-Y[NMeA]NP[Dap]L[Hyp]W[Dab][Trp(1-CH2COOH)][NMeNle][NMeNle]LCGGG[Pra]-OH; thioether N-14)
